Data taken from the Bradley open melting point set (2014).
“And” between values parts separate entries of the source, which are not always exact repeats. Equal entries are not always repeated.

Row | Compound | melting point
1 | N#CC(=Cc1cccc(O)c1)C1N=c2ccccc2=N1 | 300 °C
2 | OC(C(F)(F)F)C(F)(F)F [1,1,1,3,3,3-Hexafluoropropan-2-ol] | -3 °C
3 | ClC(Cl)C(Cl)Cl [1,1,2,2-tetrachloroethane] | -43 °C
4 | OC1CC2=C(CC=CC2)CC1O (stereo not given) [1,2,3,4,5,8-hexahydronaphthalene-2,3-diol] | 121 °C
5 | Fc1ccc(F)c(F)c1F [1,2,3,4-tetrafluorobenzene] | -42 °C
6 | Clc1cc(Cl)c(Cl)c(Cl)c1 [1,2,3,5-tetrachlorobenzene] | 53 °C and 55 °C and 51.5 °C
7 | Clc1cccc(Cl)c1Cl [1,2,3-Trichlorobenzene] | 53 °C
8 | c1c[nH]nn1 [1,2,3-triazole] | 24 °C
9 | BrCC(Br)CBr [1,2,3-tribromopropane] | 17 °C
10 | Clc1cccc(Cl)c1Cl [1,2,3-trichlorobenzene] | 54 °C
11 | Clc1cc(Cl)c(Cl)cc1Cl [1,2,4,5-Tetrachlorobenzene] | 139 °C
12 | Brc1cc(Br)c(Br)cc1Br [1,2,4,5-tetrabromobenzene] | 182 °C
13 | Clc1ccc(Cl)c(Cl)c1 [1,2,4-Trichlorobenzene] | 17 °C
14 | Brc1ccc(Br)c(Br)c1 [1,2,4-tribromobenzene] | 43 °C (2×) and 44 °C
15 | Clc1cc(Cl)c(I)cc1Cl [1,2,4-trichloro-5-iodobenzene] | 104 °C
16 | Clc1ccc(Cl)c(Cl)c1 [1,2,4-trichlorobenzene] | 17 °C
17 | Cc1ccc(C)c(C)c1 [1,2,4-trimethylbenzene] | -44 °C
18 | OCCCCC(O)CO (stereo not given) [1,2,6-hexanetriol] | -20 °C
19 | c1cc2c3c(cccc3c1)CC2 [1,2-Dihydroacenaphthylene] | 95 °C
20 | c1ccc(NNc2ccccc2)cc1 [1,2-Diphenylhydrazine] | 125 °C
21 | CP(C)CCP(C)C [1,2-bis(dimethylphosphino)ethane] | 180 °C
22 | CCC(Br)CBr (stereo not given) [1,2-dibromobutane] | -65 °C
23 | BrCCBr [1,2-dibromoethane] | 10 °C

Second part, the compound after the results:

Row | melting point | Compound
24 | 115 °C | C/C(CCc1oc2ccc(Cl)cc2c1-c1ccc(C)o1)=N\O
25 | 143 °C | COc1ccc(-c2csc(/C(C#N)=C/c3ccc(Cl)cc3Cl)n2)cc1
26 | -2 °C | CC(O)CN (racemic) [dl-1-amino-2-propanol]
27 | 159 °C | O=C[C@H](O)[C@@H](O)[C@@H](O)CO (racemic) [dl-arabinose]
28 | 293 °C | CC(C)CC(N)C(=O)O (stereo in doubt) [D-Leucine]
29 | 82 °C | CC(=O)OC[C@H]1O[C@@H](OC(C)=O)[C@H](OC(C)=O)[C@@H]1OC(C)=O (stereo in doubt) [beta-D-ribofuranose 1,2,3,5-tetraacetate]
30 | -8.5 °C | CCCCCC=CCC=CCCCCCCCC(=O)O (stereo in doubt) [linoleic acid]
31 | 75 °C | O=C1CCC(c2ccccc2)c2ccccc21 (stereo not given) [1(2H)-Naphthalenone, 3,4-dihydro-4-phenyl-]
32 | 51.5 °C | S=P(N1CC1)(N1CC1)N1CC1 [1,1',1''-Phosphorothioyltriaziridine]
33 | 190 °C | CC(CO)(CO)CO [1,1,1-tris(hydroxymethyl)ethane]
34 | 171 °C | OC(c1ccccc1)(c1ccccc1)C(O)(c1ccccc1)c1ccccc1 [1,1,2,2-Tetraphenylethane-1,2-diol]
35 | 46 °C | C#CC(O)(c1ccccc1)c1ccccc1 [1,1-diphenyl-2-propyn-1-ol]
36 | -6 °C | Cc1ccc(C)c(C)c1C [1,2,3,4-tetramethylbenzene]
37 | 45 °C | COc1cccc(OC)c1OC [1,2,3-trimethoxybenzene]
38 | 210 °C | Sc1nnc2ccccn12 [1,2,4-triazolo[4,3-a]pyridine-3-thiol]
39 | -60 °C | C[C@@H](O)CO [1,2-Propanediol]
40 | 81 °C | Cc1ccc(CCc2ccc(C)cc2)cc1 [1,2-di(p-tolyl)ethane]
